Assay results reported in US7626005B2, “Inhibitors of aminoglycoside 6′-N-acetyltransferases, compositions and uses thereof” (priority 2005, dated 2009).

Assays:
[1] = molecular target: T1, AAC(6′)-Ii (Enterococcus faecium, UniProt Q47764); assay: AAC6′-Ii inhibition assay (DTDP-coupled, varying AcCoA); type: biochemical; design: made in house; host or cells: Escherichia coli BL21; conditions: for type of inhibition (in words): versus acetylCoA; for Vm: maximal velocity from the fit of the inhibition assay; for enhanced inhibition of AAC(6′)-Ii as compared to lysine-CoA conjugates (3a and 3b): relative to 3a and 3b
T1 sequence (Q47764 1-182): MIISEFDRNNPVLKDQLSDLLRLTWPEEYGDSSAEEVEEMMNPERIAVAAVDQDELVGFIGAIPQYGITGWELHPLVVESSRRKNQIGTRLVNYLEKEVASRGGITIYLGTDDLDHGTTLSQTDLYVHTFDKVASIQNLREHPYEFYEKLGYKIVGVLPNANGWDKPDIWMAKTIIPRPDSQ
Protocol: AAC(6′)-Ii was obtained using a previously described protocol (Wright and Ladak, 1997). The Escherichia coli strain BL21 was transformed with a pET22b expression plasmid containing the AAC(6′)-Ii gene. The bacteria were grown in Luria-Bertani (LB) media at 37° C. containing ampicillin (100 μg/mL). Expression of the protein was induced using isopropyl-β-D-thiogalactoside (IPTG). After harvesting the cells by centrifugation and washing them with a 0.85% NaCl solution, the cells were lysed by sonication. AAC(6′)-Ii was purified in a two-step process: firstly, the lysate was ran through a Q-Sepharose ion exchange column (GE Healthsciences), and secondly the AAC(6′)-Ii containing fractions were further purified using a Gentamicin agarose affinity column (BioRad).
Enzyme activity was monitored using a procedure described elsewhere (Williams and Northrop, 1978). Thus, reaction mixtures in HEPES (1 mM, pH=7.5) and containing 4,4′-dithiodipyridine (DTDP, 2 mM), aminoglycoside (200 μM), and AAC(6′)-Ii (25 μg/mL) were prepared with varying concentrations of AcCoA. Reaction volumes were typically 400 μl. The assay mixtures were preincubated for 1 min at 37° C. The initial rates V were fit to Equation S1, where [S] is the concentration of AcCoA, Km is the Michaelis-Menten constant, and Vm is the maximal velocity: [S]/V=[S]/Vm+Km/Vm (S1)
The initial reaction velocity (steady-state) in the presence of inhibitors was measured as described above. The initial rates obtained at various concentrations of inhibitor were fit to Equation S2 for competitive inhibition, to Equation S3 for […] inhibition, or to Equation S4 for uncompetitive inhibition, where [I] is the concentration of inhibitor and Ki is the inhibition constant: [S]/V=[S]/Vm+(1+[I]/Ki)Km/Vm (S2) [S]/V=(1+[I]/Ki)[S]/Vm+Km/Vm (S3) [S]/V=(1+[I]/Ki)[S]/Vm+(1+[I]/Ki)Km/Vm (S4)

[2] = molecular target: T2, AAC(6′)-Iy (Salmonella enteritidis, UniProt Q9R381); assay: Inhibition assay of AAC(6′)-Iy; type: biochemical, Salmonella enterica; conditions: for Ki: Table 2
T2 sequence (Q9R381 1-145): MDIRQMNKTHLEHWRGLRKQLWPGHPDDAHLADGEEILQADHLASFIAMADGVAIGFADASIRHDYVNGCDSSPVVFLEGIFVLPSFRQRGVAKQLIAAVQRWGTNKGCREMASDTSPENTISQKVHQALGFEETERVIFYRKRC

[3] = molecular target: T1, AAC(6′)-Ii; conditions: read-out: Michaelis-Menten constant (Km); acetyl CoA as substrate of AAC(6′)-Ii; cited from earlier work
[4] = Ki (μM), Table 1, inhibition of AAC(6′)-Ii, varying AcCoA
[5] = inhibition constant (Ki), running text b80

| SMILES | inhibition of AAC(6′)-Ii (in words) [1] | Ki [1, 4] | Ki [1, 5] | type of inhibition (in words) [1] | Ki values (in words) [2] | Ki [2] | Ki values (in words) [1] | Ki ([1]; AAC(6′)-Ii [Ki, (μM)], Table 2) | Vm ([1]; Table 1) | enhanced inhibition of AAC(6′)-Ii as compared to lysine-CoA conjugates (3a and 3b) [1] | type of inhibition (in words) ([1]; listed as 10) | Km [3] |
| --- | --- | --- | --- | --- | --- | --- | --- | --- | --- | --- | --- | --- |
| COC(=O)C(CCCCNC(=O)CSCCNC(=O)CCNC(=O)C(O)C(C)(C)COP(=O)(O)OP(=O)(O)OCC1OC(n2cnc3c(N)ncnc32)C(O)C1OP(=O)(O)O)NC(C)=O (centres unmarked) [Compound 3a] | moderate inhibition | ≥ 130 µM | 130 µM | moderate competitive inhibition | – | – | – | – | – | – | – | – |
| COC(=O)C(CCCCNC(=O)CCSCCNC(=O)CCNC(=O)C(O)C(C)(C)COP(=O)(O)OP(=O)(O)OCC1OC(n2cnc3c(N)ncnc32)C(O)C1OP(=O)(O)O)NC(C)=O (centres unmarked) [Compound 3b] | moderate inhibition | ≥ 30 µM | 30 µM | moderate competitive inhibition | – | – | – | – | – | – | – | – |
| CC(C)(COP(=O)(O)OP(=O)(O)OCC1OC(n2cnc3c(N)ncnc32)C(O)C1OP(=O)(O)O)C(O)C(=O)NCCC(=O)NCCSCC(=O)NCC1OC(OC2C(N)CC(N)C(O)C2O)C(N)C(O)C1O (centres unmarked) [Compound 10a] | – | 0.076 ± 0.025 µM | – | potent competitive inhibitors | near submicromolar | 2.76 ± 0.4 µM | submicromolar range | 0.076 ± 0.025 µM | 0.15 ± 0.01 µM/s | 500 fold | competitive inhibition versus acetylCoA | – |
| CC(C)(COP(=O)(O)OP(=O)(O)OCC1OC(n2cnc3c(N)ncnc32)C(O)C1OP(=O)(O)O)C(O)C(=O)NCCC(=O)NCCSCCC(=O)NCC1OC(OC2C(N)CC(N)C(O)C2O)C(N)C(O)C1O (centres unmarked) [Compound 10b] | highest inhibition among all the inhibitors | – | – | potent competitive inhibitors | near submicromolar | 1.89 ± 0.3 µM | submicromolar range | 0.043 ± 0.023 µM | – | – | – | – |
| CC(C)(COP(=O)(O)OP(=O)(O)OCC1OC(n2cnc3c(N)ncnc32)C(O)C1OP(=O)(O)O)C(O)C(=O)NCCC(=O)NCCSCCCC(=O)NCC1OC(OC2C(N)CC(N)C(O)C2O)C(N)C(O)C1O (centres unmarked) [Compound 10c] | – | – | – | potent competitive inhibitors | near submicromolar | 2.1 ± 0.3 µM | submicromolar range | 0.161 ± 0.098 µM | – | – | – | – |
| CC(C)(COP(=O)(O)OP(=O)(O)OCC1OC(n2cnc3c(N)ncnc32)C(O)C1OP(=O)(O)O)C(O)C(=O)NCCC(=O)NCCSCCCCC(=O)NCC1OC(OC2C(N)CC(N)C(O)C2O)C(N)C(O)C1O (centres unmarked) [Compound 10d] | – | – | – | – | near submicromolar | 1.9 ± 0.3 µM | – | 7.99 ± 2.66 µM | – | – | – | – |
| CC(C)(COP(=O)(O)OP(=O)(O)OCC1OC(n2cnc3c(N)ncnc32)C(O)C1OP(=O)(O)O)C(O)C(=O)NCCC(=O)NCCSCC(=O)NCC1OC(OC2C(N)CC(N)C(O)C2OC2OC(CO)C(O)C2O)C(N)C(O)C1O (centres unmarked) [Compound 12] | – | 0.119 ± 0.014 µM | – | competitive inhibition versus acetylCoA | – | 1.1 ± 0.1 µM | – | 0.119 ± 0.014 µM | 0.14 ± 0.04 µM/s | 500 fold | – | – |
| CC(=O)SCCNC(=O)CCNC(=O)[C@H](O)C(C)(C)COP(=O)(O)OP(=O)(O)OC[C@H]1O[C@@H](n2cnc3c(N)ncnc32)[C@H](O)[C@@H]1OP(=O)(O)O [acetyl CoA, Acetyl Coenzyme A] | – | – | – | – | – | – | – | – | – | – | – | 23.5 µM |
